Structures can show the parent of a compound that is named as a salt. Where two headings read alike, the source gives them in different places.
How the values were obtained:
Assay type in all cases: cell-based, Plasmodium falciparum
[1] = system: P. falciparum Tm4/8.2 (wild type); experiment: In vitro anti-Plasmodial activity against Tm4/8.2; details: P. falciparum Tm4/8.2, wild type DHFR
Procedure: (§1) It is an object of the invention to provide anti-folate antimalarials with dual-binding modes, and pharmaceutically acceptable salts thereof, for substantially inhibiting dihydrofolate reductase enzymes. Enzymes, comprising dihydrofolate reductase of Plasmodium falciparum, wild-type, double (C59R+S108N), triple (N51+C59R+S108N, C59R+S108N+1164L), and quadruple (N51+C59R+S108N+I164L) mutants were prepared. The inhibition constants (Ki) of the enzymes with the invented compounds were investigated using a standard method. In vitro antimalarial activity (IC50) with malaria parasites carrying Tm4/8.2 (wild type), K1CB1 (double mutant, C59R+S108N), W2 (triple mutant N51I+C59R+S 108N), Cs1-2 (triple mutant, C59R+S108N+I164L), and V1/S (quadruple mutant, N51I+C59R+S108N+I164L) were also investigated using a standard method.

[2] = system: P. falciparum K1CB1 (double mutant, C59R+S108N); experiment: In vitro anti-Plasmodial activity against K1CB1
Procedure: as §1

[3] = system: P. falciparum W2 (triple mutant N51I+C59R+S108N); experiment: In vitro anti-Plasmodial activity against W2
Procedure: as §1

[4] = system: P. falciparum Cs1-2 (triple mutant, C59R+S108N+I164L); experiment: In vitro anti-Plasmodial activity against Cs1-2
Procedure: as §1

[5] = system: P. falciparum V1/S (quadruple mutant, N51I+C59R+S108N+I164L); experiment: In vitro anti-Plasmodial activity against V1/S
Procedure: as §1

[6] = Plasmodium falciparum, read-out: IC50 K1CB1, P. falciparum K1CB1, double mutant
[7] = Plasmodium falciparum, W2, read-out: IC50 W2, P. falciparum W2, triple mutant
[8] = Plasmodium falciparum, read-out: IC50 Cs1-2, P. falciparum Cs1-2, triple mutant
[9] = Plasmodium falciparum, read-out: IC50 V1/S, P. falciparum V1/S, quadruple mutant

| Compound | IC50 ([1]; Plasmodium falciparum) [nM] | IC50 [2, 6] [nM] | IC50 ([3]; read-out: IC50 W2, P. falciparum W2, triple mutant) [nM] | IC50 ([4]; read-out: IC50 Cs1-2, P. falciparum Cs1-2, triple mutant) [nM] | IC50 ([5]; read-out: IC50 V1/S, P. falciparum V1/S, quadruple mutant) [nM] | IC50 ([1]; dihydrochloride) [nM] | IC50 ([2]; read-out: IC50 K1CB1, P. falciparum K1CB1, double mutant, dihydrochloride) [nM] | IC50 ([3]; read-out: IC50 W2, P. falciparum W2, triple mutant, dihydrochloride) [nM] | IC50 ([4]; read-out: IC50 Cs1-2, P. falciparum Cs1-2, triple mutant, dihydrochloride) [nM] | IC50 ([5]; read-out: IC50 V1/S, P. falciparum V1/S, quadruple mutant, dihydrochloride) [nM] | IC50 [3, 7] [nM] | IC50 [4, 8] [nM] | IC50 [5, 9] [nM] |
| --- | --- | --- | --- | --- | --- | --- | --- | --- | --- | --- | --- | --- | --- |
| CCc1nc(N)nc(N)c1OCCCOc1ccc(-c2c(N)nc(N)nc2CC)cc1 [Compound B, 5-(4′-(3″-(2,4-diamino-6-ethylpyrimidin-5-yloxy)propoxy)phenyl)-6-ethylpyrimidine-2,4-diamine] | 69 ± 10 | > 1000 | > 1000 | > 1000 | > 1000 |  |  |  |  |  |  |  |  |
| CCc1nc(N)nc(N)c1OCCCOc1ccc(-c2c(N)nc(N)nc2CC)cc1 [Compound D, 5-(4′-(3″-(2,4-diamino-6-ethylpyrimidin-5-yloxy)propoxy)phenyl)-6-ethylpyrimidine-2,4-diamine dihydrochloride] |  |  |  |  |  | 63 ± 10 | 1840 ± 310 | 2380 ± 110 | 3950 ± 360 | 4400 ± 710 |  |  |  |
| CCc1nc(N)nc(N)c1-c1ccc(Cl)cc1 [Pyr, Pyrimethamine, reference compound] | 66 ± 30 | 27000 ± 3330 |  |  |  |  |  |  |  |  | 39000 ± 5420 | 37000 ± 5980 | > 100000 |
| CCc1nc(N)nc(N)c1-c1ccc(OCCCOc2ccc(-c3c(N)nc(N)nc3CC)cc2)cc1 [Compound E, 5-(4′-3″-(4″′-(2,4-diamino-6-ethylpyrimidin-5-yl)phenoxy)propoxy)phenyl)-6-ethylpyrimidine-2,4-diamine dihydrochloride] | 35 | 330 ± 40 |  |  |  |  |  |  |  |  | 280 ± 20 | 310 ± 20 | 330 ± 20 |
| CCc1nc(N)nc(N)c1OCCCOc1cccc(-c2c(N)nc(N)nc2CC)c1 [Compound A, 5-(3′-(3″-(2,4-diamino-6-ethylpyrimidin-5-yloxy)propoxy)phenyl)-6-ethylpyrimidine-2,4-diamine] | 290 ± 50 | 220 ± 60 |  |  |  |  |  |  |  |  | 250 ± 80 | 510 ± 80 | 1720 ± 690 |

Reference: patent publication US9000003B2, “Anti-folate antimalarials with dual-binding modes and their preparation” (priority 2011, dated 2015)
